Reference: the CheMixHub ionic liquid set
Several values for one entry are separate records, joined by “and”; a condition that tells them apart may be missing. Identical values can stand only once. ± gives the uncertainty stated by the source.

Assay: xn = mol fraction of the nth substance listed

CCCCC[n+]1ccccc1.N#C[N-]C#N + O
100 kPa
Settings	electrical conductivity [S/m]	viscosity [mPa·s]
298.15 K, x1 = 0.9354	0.667 ± 0.019	–
303.15 K, x1 = 0.9354	0.833 ± 0.022	–
308.15 K, x1 = 0.9514	–	28.8 ± 1.2
308.15 K, x1 = 0.9515	0.979 ± 0.024	–
308.15 K, x1 = 0.968	–	29.6 ± 1.2
313.15 K, x1 = 0.9196	–	22.92 ± 0.95
313.15 K, x1 = 0.9198	1.23 ± 0.028	–
318.15 K, x1 = 0.9681	1.27 ± 0.03	–
318.15 K, x2 = 0.01457	1.23 ± 0.029	–
323.15 K, x1 = 0.9196	–	15.16 ± 0.63
323.15 K, x1 = 0.9198	1.67 ± 0.038	–
323.15 K, x1 = 0.968	–	16.91 ± 0.7
323.15 K, x1 = 0.9681	1.5 ± 0.035	–
323.15 K, x2 = 0.01492	–	17.54 ± 0.73
328.15 K, x1 = 0.9351	–	14.21 ± 0.59
328.15 K, x1 = 0.9354	1.82 ± 0.04	–
328.15 K, x2 = 0.01457	1.65 ± 0.038	–
328.15 K, x2 = 0.01492	–	15.11 ± 0.62
338.15 K, x1 = 0.9514	–	11.11 ± 0.46
338.15 K, x1 = 0.9515	2.23 ± 0.049	–

CCCC[N+](C)(CCCC)CCCC.[Cl-] + O
viscosity
Settings	293.15 K	298.15 K	303.15 K	308.15 K	313.15 K
100 kPa, x1 = 0.0003603	1.01 ± 0.02 mPa·s	0.904 ± 0.019 mPa·s	0.809 ± 0.019 mPa·s	0.726 ± 0.019 mPa·s	0.661 ± 0.019 mPa·s
100 kPa, x1 = 0.0007023	1.024 ± 0.02 mPa·s	0.914 ± 0.019 mPa·s	0.815 ± 0.019 mPa·s	0.735 ± 0.019 mPa·s	0.671 ± 0.019 mPa·s
100 kPa, x1 = 0.001062	1.035 ± 0.02 mPa·s	0.93 ± 0.019 mPa·s	0.829 ± 0.019 mPa·s	0.744 ± 0.019 mPa·s	0.686 ± 0.019 mPa·s
100 kPa, x1 = 0.001422	1.045 ± 0.02 mPa·s	0.941 ± 0.02 mPa·s	0.839 ± 0.019 mPa·s	0.756 ± 0.019 mPa·s	0.694 ± 0.019 mPa·s
101.3 kPa, x1 = 0.0003423	1.011 ± 0.015 mPa·s	0.904 ± 0.015 mPa·s	0.806 ± 0.015 mPa·s	0.729 ± 0.015 mPa·s	0.662 ± 0.015 mPa·s
101.3 kPa, x1 = 0.0007203	1.023 ± 0.015 mPa·s and 0.98 ± 0.1 mPa·s and 1.04 ± 0.1 mPa·s	0.914 ± 0.015 mPa·s and 0.88 ± 0.1 mPa·s and 0.93 ± 0.1 mPa·s	0.812 ± 0.015 mPa·s and 0.74 ± 0.1 mPa·s and 0.83 ± 0.1 mPa·s	0.737 ± 0.015 mPa·s and 0.65 ± 0.1 mPa·s and 0.75 ± 0.1 mPa·s	0.672 ± 0.015 mPa·s and 0.67 ± 0.1 mPa·s
101.3 kPa, x1 = 0.001062	1.036 ± 0.015 mPa·s	0.931 ± 0.015 mPa·s	0.826 ± 0.015 mPa·s	0.747 ± 0.015 mPa·s	0.686 ± 0.015 mPa·s
101.3 kPa, x1 = 0.00144	1.044 ± 0.015 mPa·s and 0.97 ± 0.1 mPa·s and 1.08 ± 0.1 mPa·s	0.942 ± 0.015 mPa·s and 0.89 ± 0.1 mPa·s and 0.96 ± 0.1 mPa·s	0.84 ± 0.015 mPa·s and 0.77 ± 0.1 mPa·s and 0.86 ± 0.1 mPa·s	0.759 ± 0.015 mPa·s and 0.77 ± 0.1 mPa·s	0.695 ± 0.015 mPa·s and 0.7 ± 0.1 mPa·s

CC(=O)[O-].CC[n+]1ccn(C)c1 + N#C[S-].[Na+]
101 kPa, x2 = 0
Settings	electrical conductivity [S/m]	viscosity [mPa·s]
303.15 K	0.374 ± 0.0075	93.6 ± 6.1
313.15 K	0.587 ± 0.012	55.5 ± 3.6

OC[C@H]1O[C@H](O[C@H]2[C@H](O)[C@@H](O)C(O)O[C@@H]2CO)[C@H](O)[C@@H](O)[C@@H]1O (stereo not given in full) + CCCCCCCCCCCCCCCC[N+](C)(C)C.[Br-] + O
viscosity [mPa·s], 100 kPa
Settings	298.15 K	308.15 K	318.15 K
x2 = 7.13e-06, x1 = 0.002703	1.07 ± 0.062	0.885 ± 0.063	0.734 ± 0.061
x2 = 7.15e-06, x1 = 0.002359	1.048 ± 0.062	0.867 ± 0.061	0.719 ± 0.061
x2 = 7.16e-06, x1 = 0.001637	1.002 ± 0.062	0.829 ± 0.061	0.688 ± 0.061
x2 = 7.16e-06, x1 = 0.001964	1.023 ± 0.062	0.846 ± 0.061	0.702 ± 0.061
x2 = 7.18e-06, x1 = 0.0009633	0.958 ± 0.061	0.793 ± 0.061	0.659 ± 0.061
x2 = 7.18e-06, x1 = 0.001278	0.978 ± 0.061	0.809 ± 0.061	0.672 ± 0.061
x2 = 1.423e-05, x1 = 0.002657	1.073 ± 0.062	0.888 ± 0.062	0.736 ± 0.061
x2 = 1.424e-05, x1 = 0.002424	1.058 ± 0.062	0.875 ± 0.062	0.726 ± 0.061
x2 = 1.428e-05, x1 = 0.001986	1.029 ± 0.062	0.851 ± 0.061	0.706 ± 0.061
x2 = 1.43e-05, x1 = 0.001593	1.003 ± 0.062	0.83 ± 0.061	0.688 ± 0.061
x2 = 1.433e-05, x1 = 0.001228	0.979 ± 0.061	0.81 ± 0.061	0.672 ± 0.061
x2 = 1.435e-05, x1 = 0.0009418	0.96 ± 0.061	0.795 ± 0.061	0.659 ± 0.061
x2 = 2.126e-05, x1 = 0.002693	1.08 ± 0.062	0.894 ± 0.063	0.74 ± 0.061
x2 = 2.128e-05, x1 = 0.002482	1.066 ± 0.062	0.882 ± 0.062	0.73 ± 0.061
x2 = 2.135e-05, x1 = 0.001972	1.032 ± 0.062	0.854 ± 0.061	0.707 ± 0.061
x2 = 2.141e-05, x1 = 0.001636	1.01 ± 0.062	0.835 ± 0.061	0.692 ± 0.061
x2 = 2.143e-05, x1 = 0.001347	0.99 ± 0.061	0.819 ± 0.061	0.678 ± 0.061
x2 = 2.15e-05, x1 = 0.0008556	0.957 ± 0.061	0.792 ± 0.061	0.656 ± 0.061

CC(=O)[O-].[K+] + O + CCCC[n+]1ccn(C)c1.O=S(=O)([O-])C(F)(F)F
Settings	viscosity [mPa·s]
308.15 K, 101 kPa, x1 = 0.01574, x2 = 0.9011	1.515 ± 0.014

CC(=O)[O-].CC[n+]1ccn(C)c1 + [N-]=C=S.[NH4+]
313.15 K, 101 kPa, x2 = 0
Settings	electrical conductivity [S/m]	viscosity [mPa·s]
–	0.6 ± 0.019	56.4 ± 1.5

CCCO + CC[n+]1ccn(CCOC)c1.O=S(=O)([O-])C(F)(F)F
101 kPa, x2 = 0
Settings	viscosity [mPa·s]
288.15 K	2.475 ± 0.053
293.15 K	2.185 ± 0.046
298.15 K	1.937 ± 0.041
303.15 K	1.723 ± 0.037
308.15 K	1.537 ± 0.033
313.15 K	1.377 ± 0.029
318.15 K	1.235 ± 0.026

CCCC[N+](C)(CCCC)CCCC.[Cl-] + OC[C@H]1O[C@@H](O[C@H]2[C@H](O)[C@@H](O)[C@@H](O)O[C@@H]2CO)[C@H](O)[C@@H](O)[C@H]1O + O
viscosity [mPa·s], 100 kPa
Settings	293.15 K	298.15 K	303.15 K	308.15 K	313.15 K
x2 = 0, x1 = 0.0003603	1.01 ± 0.02	0.904 ± 0.019	0.809 ± 0.019	0.726 ± 0.019	0.661 ± 0.019
x2 = 0, x1 = 0.0007023	1.024 ± 0.02	0.914 ± 0.019	0.815 ± 0.019	0.735 ± 0.019	0.671 ± 0.019
x2 = 0, x1 = 0.001062	1.035 ± 0.02	0.93 ± 0.019	0.829 ± 0.019	0.744 ± 0.019	0.686 ± 0.019
x2 = 0, x1 = 0.001422	1.045 ± 0.02	0.941 ± 0.02	0.839 ± 0.019	0.756 ± 0.019	0.694 ± 0.019

C=CC[n+]1ccn(C)c1.[Cl-] + NC(N)=O
101 kPa
Settings	electrical conductivity, 298 K [S/m]	electrical conductivity, 308 K [S/m]	electrical conductivity, 318 K [S/m]	electrical conductivity, 328 K [S/m]	electrical conductivity, 338 K [S/m]	viscosity, 298.15 K [mPa·s]
x1 = 0.5579	0.169 ± 0.004	0.228 ± 0.005	0.287 ± 0.006	0.342 ± 0.007	0.416 ± 0.009	405 ± 20
x1 = 0.6543	0.222 ± 0.005	0.298 ± 0.006	0.372 ± 0.008	0.448 ± 0.009	0.538 ± 0.011	353 ± 16
x1 = 0.7911	0.283 ± 0.006	0.372 ± 0.008	0.464 ± 0.01	0.562 ± 0.012	0.677 ± 0.014	299 ± 13
x1 = 1	0.411 ± 0.009	0.498 ± 0.01	0.618 ± 0.013	0.736 ± 0.015	0.862 ± 0.018	255 ± 10

Cn1cc[n+](CCC[n+]2ccn(C)c2)c1.[Br-].[Br-] + O
viscosity [mPa·s], 101 kPa
Settings	x1 = 0.0005912	x1 = 0.0006805	x1 = 0.0007474	x1 = 0.0009122	x1 = 0.00129	x1 = 0.00144	x1 = 0.001838	x1 = 0.002094	x1 = 0.002204	x1 = 0.002491
293.15 K	–	–	–	–	–	1.05	1.066	1.071	1.071	1.084
298.15 K	0.905	0.904	0.908	0.913	–	0.935	0.948	0.955	0.955	0.962
303.15 K	0.812	0.811	0.816	–	0.832	0.84	0.85	0.855	0.857	0.859
308.15 K	0.734	0.734	0.739	0.74	0.754	–	0.768	0.77	0.774	0.775
313.15 K	0.669	0.67	0.673	–	–	0.693	0.7	0.702	0.705	0.708

O=S(=O)([N-]S(=O)(=O)C(F)(F)F)C(F)(F)F.O=S(=O)([N-]S(=O)(=O)C(F)(F)F)C(F)(F)F.[Zn+2] + CCCC[N+]1(C)CCCC1.O=S(=O)([N-]S(=O)(=O)C(F)(F)F)C(F)(F)F
100 kPa, x1 = 0.24
Settings	electrical conductivity [S/m]
356.5 K	0.306 ± 0.018
409.4 K	1.24 ± 0.075

CCCC[N+](C)(CCCC)CCCC.N#C[N-]C#N + CC[n+]1ccn(C)c1.N#C[N-]C#N
viscosity [mPa·s], 101 kPa
Settings	303.15 K	333.15 K	343.15 K	353.15 K
x2 = 0.2114	109.5 ± 5.2	–	20.6 ± 0.85	15.38 ± 0.63
x2 = 0.3975	–	19.3 ± 0.8	–	11.19 ± 0.46
x2 = 0.6047	33 ± 1.4	–	–	–
